Results as given in patent US20070117743A1, “New antitumoral compounds” (priority 2003, published 2007).

Tests used:
Type in all cases: cell-based, human
[1] = system: SK-MEL-28; experiment: SRB colorimetric assay of cell growth and viability, SK-MEL-28; conditions: 48 hours exposure; for CC50: read-out: LC50 MEL-28
Source text: (§1) The finality of this assay is to interrupt the growth of a “in vitro” tumor cell culture by means a continued exhibition of the cells to the sample to be testing.
(§2) This form of the assay employs 96 well cell culture microplates of 9 mm diameter (Faircloth, 1988; Mosmann, 1983). Most of the cell lines are obtained from American Type Culture Collection (ATCC) derived from different human cancer types.
(§3) Cells are maintained in RPMI 1640 10% FBS, supplemented with 0.1 g/l penicillin and 0.1 g/l streptomycin sulfate and then incubated at 37° C., 5% CO2 and 98% humidity. For the experiments, cells were harvested from subconfluent cultures using trypsin and resuspended in fresh medium before plating.
(§4) Cells are seeded in 96 well microtiter plates, at 5×10^3 cells per well in aliquots of 195 μL medium, and they are allowed to attach to the plate surface by growing in drug free medium for 18 hours. Afterward, samples are added in aliquots of 5 μL in a ranging from 10 to 10^−8 μg/mL, dissolved in DMSO:EtOH:PBS (0.5:0.5:99). After 48 hours exposure, the antitumor effect are measured by the SRB methodology: cells are fixed by adding 50 μL of cold 50% (wt/vol) trichloroacetic acid (TCA) and incubating for 60 minutes at 4° C. Plates are washed with deionized water and dried. One hundred μL of SRB solution (0.4% wt/vol in 1% acetic acid) is added to each microtiter well and incubated for 10 minutes at room temperature. Unbound SRB is removed by washing with 1% acetic acid. Plates are air dried and bound stain is solubilized with Tris buffer. Optical densities are read on a automated spectrophotometric plate reader at a single wavelength of 490 nm.
(§5) The values for mean+/− SD of data from triplicate wells are calculated. Some parameters for cellular responses can be calculated: GI=growth inhibition, TGI=total growth inhibition (cytostatic effect) and LC=cell killing (cytotoxic effect).

[2] = system: A-549; experiment: SRB colorimetric assay of cell growth and viability, A-549; conditions: 48 hours exposure; for GI50: read-out: GI50 A-549; for CC50: read-out: LC50 A-549
Source text: as §1, §2, §3, §4, §5

[3] = system: IGROV-1; experiment: SRB colorimetric assay of cell growth and viability, IGROV-1; conditions: 48 hours exposure
Source text: as §1, §2, §3, §4, §5

[4] = system: IGROV-ET; experiment: SRB colorimetric assay of cell growth and viability, IGROV-ET; conditions: 48 hours exposure; for CC50: read-out: LC50 IGROV-ET
Source text: as §1, §2, §3, §4, §5

[5] = system: LoVo-Dox; experiment: SRB colorimetric assay of cell growth and viability, LoVo-Dox; conditions: 48 hours exposure; for CC50: read-out: LC50 LOVO-DOX
Source text: as §1
A colorimetric type of assay, using sulforhodamine B (SRB) reaction has been adapted for a quantitative measurement of cell growth and viability [following the technique described by Philip Skehan, et al. (1990), New colorimetric cytotoxicity assay for anticancer drug screening, J. Natl. Cancer Inst., 82:1107-1112].
as §2, §3, §4, §5

[6] = system: K-562; experiment: SRB colorimetric assay of cell growth and viability, K-562; conditions: 48 hours exposure; for CC50: read-out: LC50 K-562
Source text: as §1, §2, §3, §4, §5

[7] = system: DU-145; experiment: SRB colorimetric assay of cell growth and viability, DU-145; conditions: 48 hours exposure
Source text: as §1, §2, §3, §4, §5

[8] = system: PANC-1; experiment: SRB colorimetric assay of cell growth and viability, PANC-1; conditions: 48 hours exposure; for CC50: read-out: LC50 PANC-1
Source text: as §1, §2, §3, §4, §5

[9] = system: HeLa-APL; experiment: SRB colorimetric assay of cell growth and viability, HeLa-APL; conditions: 48 hours exposure; for CC50: read-out: LC50 HELA-APL
Source text: as §1, §2, §3, §4, §5

[10] = system: LoVo; experiment: SRB colorimetric assay of cell growth and viability, LoVo; conditions: 48 hours exposure; for CC50: read-out: LC50 LOVO
Source text: as §1, §2, §3, §4, §5

[11] = system: HT-29; experiment: SRB colorimetric assay of cell growth and viability, HT-29; conditions: 48 hours exposure; for GI50: read-out: GI50 HT-29; for CC50: read-out: LC50 HT-29
Source text: as §1, §2, §3, §4, §5

[12] = system: HeLa; experiment: SRB colorimetric assay of cell growth and viability, HeLa; conditions: 48 hours exposure; for CC50: read-out: LC50 HELA
Source text: as §1, §2, §3, §4, §5

In the case of `C/C=C1\NC(=O)[C@H](Cc2ccccc2)NC(=O)[C@@H](C(C)C)NC(=O)[C@@H]([C@@H](C)CC)NC(=O)[C@H](NC(=O)[C@H](NC(=O)[C@H](CCCN)NC(=O)[C@H]2CCCN2C(=O)[C@H](NC(=O)[C@@H](NC(=O)[C@@H](NC(=O)[C@@H](CC(C)C)NC(=O)CCCC(C)C)[C@@H](C)O)C(C)C)C(C)C)[C@@H](C)CC)[C@@H](C)OC(=O)[C@H](C(C)C)NC1=O` [Compound 35, [D-Leu^13]-KF], the GI50 [1] is reported as 1170 nM, the “TGI MEL-28” value [1] is reported as 2.10E−06 Molar and the CC50 [1] is reported as 3790 nM. For the same compound, the “TGI A-549” value [2] was 9.58E−07 Molar, the GI50 [2] was 124 nM and the CC50 [2] was 2650 nM. The GI50 [3] was 717 nM, the LC50 (concentration causing 50% net cell killing) [3] was 3240 nM and the “TGI IGROV” value [3] was 1.53E−06 Molar. The GI50 [4] was 684 nM, the “TGI IGROV-ET” value [4] was 1.49E−06 Molar and the CC50 [4] was 3260 nM. The GI50 [5] was 158 nM, the “TGI LOVO-DOX” value [5] was 3.46E−07 Molar and the CC50 [5] was 871 nM. The GI50 [6] was 1230 nM, the “TGI K-562” value [6] was 2.30E−06 Molar and the CC50 [6] was 4280 nM. The GI50 [7] was 905 nM, the LC50 (concentration causing 50% net cell kill) [7] was 3530 nM and the “TGI DU-145” value [7] was 1.79E−06 Molar. The GI50 [8] was 751 nM, the “TGI PANC-1” value [8] was 1.87E−06 Molar and the CC50 [8] was 4670 nM. For the same compound, the GI50 [9] was 13.3 nM, the “TGI HELA-APL” value [9] was 1.31E−06 Molar and the CC50 [9] was 6700 nM. The GI50 [10] was 200 nM, the “TGI LOVO” value [10] was 8.04E−07 Molar and the CC50 [10] was 2280 nM. For the same compound, the “TGI HT-29” value [11] was 1.62E−06 Molar, the GI50 [11] was 771 nM and the CC50 [11] was 3390 nM. The GI50 [12] was 878 nM, the “TGI HELA” value [12] was 1.74E−07 Molar and the CC50 [12] was 3430 nM.
In the case of `C/C=C1\NC(=O)[C@H](Cc2ccccc2)NC(=O)[C@@H](C(C)C)NC(=O)[C@@H]([C@@H](C)CC)NC(=O)[C@H](NC(=O)[C@H](NC(=O)[C@H](CCCN)NC(=O)[C@H]2CCCN2C(=O)[C@H](NC(=O)[C@@H](NC(=O)[C@@H](NC(=O)[C@@H](Cc2ccccc2)NC(=O)CCCC(C)C)[C@@H](C)O)C(C)C)C(C)C)[C@@H](C)CC)[C@@H](C)OC(=O)[C@H](C(C)C)NC1=O` [Compound 36, [D-Phe^13]-KF], the GI50 [1] is reported as 154 nM, the “TGI MEL-28” value [1] is reported as 7.21E−07 Molar and the CC50 [1] is reported as 2200 nM. The “TGI A-549” value [2] was 5.14E−08 Molar, the GI50 [2] was 4.81 nM and the CC50 [2] was 990 nM. For the same compound, the GI50 [3] was 144 nM, the LC50 (concentration causing 50% net cell killing) [3] was 2500 nM and the “TGI IGROV” value [3] was 9.90E−07 Molar. The GI50 [4] was 852 nM, the “TGI IGROV-ET” value [4] was 1.74E−06 Molar and the CC50 [4] was 3550 nM. For the same compound, the GI50 [5] was 300 nM, the “TGI LOVO-DOX” value [5] was 9.63E−07 Molar and the CC50 [5] was 2150 nM. For the same compound, the GI50 [6] was 420 nM, the “TGI K-562” value [6] was 1.25E−06 Molar and the CC50 [6] was 2900 nM. The GI50 [7] was 266 nM, the LC50 (concentration causing 50% net cell kill) [7] was 2490 nM and the “TGI DU-145” value [7] was 6.75E−07 Molar. For the same compound, the GI50 [8] was 6.62 nM, the “TGI PANC-1” value [8] was 2.73E−08 Molar and the CC50 [8] was 976 nM. For the same compound, the GI50 [9] was 81.9 nM, the “TGI HELA-APL” value [9] was 6.55E−06 Molar and the CC50 [9] was 6550 nM. The GI50 [10] was 136 nM, the “TGI LOVO” value [10] was 9.63E−07 Molar and the CC50 [10] was 2440 nM. For the same compound, the “TGI HT-29” value [11] was 1.21E−06 Molar, the GI50 [11] was 398 nM and the CC50 [11] was 2840 nM. The GI50 [12] was 7.86 nM, the “TGI HELA” value [12] was 9.50E−08 Molar and the CC50 [12] was 701 nM.
For `C/C=C1\NC(=O)[C@H](Cc2ccccc2)NC(=O)[C@@H](C(C)C)NC(=O)[C@@H]([C@@H](C)CC)NC(=O)[C@H](NC(=O)[C@H](NC(=O)[C@H](CCCN)NC(=O)[C@H]2CCCN2C(=O)[C@H](NC(=O)[C@@H](NC(=O)[C@@H](NC(=O)[C@H]2CCCN2C(=O)CCCC(C)C)[C@@H](C)O)C(C)C)C(C)C)[C@@H](C)CC)[C@@H](C)OC(=O)[C@H](C(C)C)NC1=O` [Compound 37, [D-Pro^13]-KF], the GI50 [1] was 76.6 nM, the “TGI MEL-28” value [1] was 2.76E−07 Molar and the CC50 [1] was 1300 nM. For the same compound, the “TGI A-549” value [2] was 3.90E−08 Molar, the GI50 [2] was 17.4 nM and the CC50 [2] was 813 nM. The GI50 [3] was 165 nM, the LC50 (concentration causing 50% net cell killing) [3] was 2550 nM and the “TGI IGROV” value [3] was 8.27E−07 Molar. For the same compound, the GI50 [4] was 1210 nM, the “TGI IGROV-ET” value [4] was 2.24E−06 Molar and the CC50 [4] was 4150 nM. For the same compound, the GI50 [5] was 1780 nM, the “TGI LOVO-DOX” value [5] was 4.30E−06 Molar and the CC50 [5] was 6780 nM. The GI50 [6] was 684 nM, the “TGI K-562” value [6] was 1.48E−06 Molar and the CC50 [6] was 3200 nM. The GI50 [7] was 228 nM, the LC50 (concentration causing 50% net cell kill) [7] was 1960 nM and the “TGI DU-145” value [7] was 5.81E−07 Molar. The GI50 [8] was 15.4 nM, the “TGI PANC-1” value [8] was 3.12E−08 Molar and the CC50 [8] was 62.8 nM. The GI50 [9] was 888 nM, the “TGI HELA-APL” value [9] was 2.01E−06 Molar and the CC50 [9] was 4550 nM. For the same compound, the GI50 [10] was 114 nM, the “TGI LOVO” value [10] was 1.02E−06 Molar and the CC50 [10] was 2970 nM. The “TGI HT-29” value [11] was 6.78E−06 Molar, the GI50 [11] was 391 nM and the CC50 [11] was 6780 nM. For the same compound, the GI50 [12] was 12.9 nM, the “TGI HELA” value [12] was 2.83E−08 Molar and the CC50 [12] was 62 nM.
